{"source": "patent US8546381B2", "about": "“Bridged heterocyclic compounds and methods of use” (Medivation Technologies, Inc., priority 2008, dated 2013)", "key": {"[1]": {"target": "T1, rat adrenergic α1A receptor (Rattus norvegicus, UniProt P43140)", "T1 construct": "obtained from Wistar Rat submaxillary glands; from tissue; host or cells: Wistar rat submaxillary glands", "T1 sequence (P43140 1-466)": "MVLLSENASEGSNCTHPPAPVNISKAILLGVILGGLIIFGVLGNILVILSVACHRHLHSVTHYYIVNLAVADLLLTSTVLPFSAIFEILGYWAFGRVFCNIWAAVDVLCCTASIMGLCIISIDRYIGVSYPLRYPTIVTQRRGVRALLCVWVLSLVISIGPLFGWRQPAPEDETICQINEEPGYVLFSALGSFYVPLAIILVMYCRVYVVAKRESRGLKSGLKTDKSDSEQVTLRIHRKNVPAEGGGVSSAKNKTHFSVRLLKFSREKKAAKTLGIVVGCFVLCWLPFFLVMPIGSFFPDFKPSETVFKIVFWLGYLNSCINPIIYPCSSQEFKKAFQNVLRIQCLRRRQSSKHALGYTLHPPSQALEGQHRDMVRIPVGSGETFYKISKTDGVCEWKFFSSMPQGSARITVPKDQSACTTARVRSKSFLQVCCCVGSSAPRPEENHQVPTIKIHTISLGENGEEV", "assay": "Adrenergic α1A radioligand binding ([3H]Prozosin)", "details": "for inhibition at 1 µM: read-out: Adrenergic α1A, inhibition of ligand binding (1 μM)", "method": "(§1) To evaluate in radioligand binding assays the activity of compounds of the invention, rat adrenergic α1A receptor obtained from Wistar Rat submaxillary glands (Michel, A. D. et al., Br. J. Pharmacol. 98:883, 1989) in a modified Tris-HCl buffer (50 mM Tris-HCl buffer, pH 7.4, 0.5 mM EDTA) was used. Compounds of the invention were incubated with 0.25 nM [^3H]Prozosin for 60 minutes at 25° C. Non-specific binding was estimated in the presence of 10 μM phentolamine. Receptor proteins were filtered and washed, the filters were then counted to determine [^3H]Prozosin specifically bound. Compounds of the invention were screened at 1 μM or lower, using 1% DMSO as vehicle. Compounds of the invention were tested in this biochemical assay and percent inhibition of specific binding was determined."}, "[2]": {"target": "T2, rat adrenergic α1B receptor (Rattus norvegicus, UniProt P15823)", "T2 construct": "obtained from Wistar Rat liver; from tissue; host or cells: Wistar rat liver", "T2 sequence (P15823 1-515)": "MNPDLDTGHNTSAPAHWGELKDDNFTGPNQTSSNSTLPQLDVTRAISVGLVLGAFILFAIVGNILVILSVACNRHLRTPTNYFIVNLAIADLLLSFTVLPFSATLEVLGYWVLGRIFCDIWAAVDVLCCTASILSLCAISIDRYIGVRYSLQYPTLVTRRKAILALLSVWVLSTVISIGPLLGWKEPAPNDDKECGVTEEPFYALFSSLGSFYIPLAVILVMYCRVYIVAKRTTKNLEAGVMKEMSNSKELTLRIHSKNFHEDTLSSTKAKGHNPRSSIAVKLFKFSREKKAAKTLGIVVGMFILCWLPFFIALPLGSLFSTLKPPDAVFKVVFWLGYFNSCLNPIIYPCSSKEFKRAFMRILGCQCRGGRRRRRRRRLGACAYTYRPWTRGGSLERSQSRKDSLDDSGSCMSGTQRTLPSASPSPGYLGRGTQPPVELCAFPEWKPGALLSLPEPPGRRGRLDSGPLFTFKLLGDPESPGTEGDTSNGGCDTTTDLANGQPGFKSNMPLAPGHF", "assay": "Adrenergic α1B radioligand binding ([3H]Prozosin)", "details": "for inhibition at 1 µM: read-out: Adrenergic α1B, inhibition of ligand binding (1 μM)", "method": "as §1, with “rat adrenergic α1B receptor obtained” for “rat adrenergic α1A receptor obtained”, “Wistar Rat liver (Garcia-S'ainz, J. A. et al., Biochem. Biophys. Res. Commun. 186:760, 1992; Michel A. D.” for “Wistar Rat submaxillary glands (Michel, A. D.”, “bound. Compounds were screened” for “bound. Compounds of the invention were screened”"}, "[3]": {"target": "T3, human recombinant adrenergic α2C receptor (Homo sapiens, UniProt P18825)", "T3 construct": "expressed in transfected cells; host or cells: insect Sf9 cells", "T3 sequence (P18825 1-462)": "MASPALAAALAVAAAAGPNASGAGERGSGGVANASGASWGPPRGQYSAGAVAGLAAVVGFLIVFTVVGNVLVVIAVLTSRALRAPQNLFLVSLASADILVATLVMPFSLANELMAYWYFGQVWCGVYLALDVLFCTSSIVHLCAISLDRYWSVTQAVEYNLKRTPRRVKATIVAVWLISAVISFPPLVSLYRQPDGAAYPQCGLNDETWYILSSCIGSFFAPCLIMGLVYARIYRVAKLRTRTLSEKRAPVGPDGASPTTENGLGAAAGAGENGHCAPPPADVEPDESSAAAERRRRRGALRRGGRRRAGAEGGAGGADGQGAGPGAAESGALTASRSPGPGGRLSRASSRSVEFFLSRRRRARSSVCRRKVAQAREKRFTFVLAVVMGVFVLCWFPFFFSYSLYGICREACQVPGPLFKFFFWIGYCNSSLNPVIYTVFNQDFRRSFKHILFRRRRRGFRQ", "assay": "Adrenergic α2C radioligand binding ([3H]MK-912)", "details": "for inhibition at 1 µM: read-out: Adrenergic α2C, inhibition of ligand binding (1 μM)", "method": "To evaluate in radioligand binding assays the activity of compounds of the invention, human recombinant adrenergic α2C receptor expressed in insect Sf9 cells (Uhlen S et al. J Pharmacol Exp Ther. 271:1558, 1994) in a modified Tris-HCl buffer (50 mM Tris-HCl, pH 7.4, 12.5 mM MgCl2, 2 mM EDTA) was used. Compounds of the invention were incubated with 1 nM [^3H]MK-912 for 60 minutes at 25° C. Non-specific binding was estimated in the presence of 10 μM WB-4101. Receptor proteins were filtered and washed, the filters were then counted to determine [^3H]MK-912 specifically bound. Compounds were screened at 1 μM or lower, using 1% DMSO as vehicle. Compounds of the invention were tested in this biochemical assay and percent inhibition of specific binding was determined."}}, "data": [{"smiles": "Cc1ccc2c(c1)c1c(n2CCc2ccccc2)CC2CCC1N2C", "note": "(stereo not drawn) [Compound 2]", "values": [{"measurement": "inhibition at 0.03 µM", "setting": "[1]; read-out: Adrenergic α1A, inhibition of ligand binding (0.03 μM)", "result": 66, "unit": "%"}, {"measurement": "inhibition at 0.3 µM", "setting": "[1]; read-out: Adrenergic α1A, inhibition of ligand binding (0.3 μM)", "result": 97, "unit": "%"}, {"measurement": "inhibition at 1 µM", "setting": "[1]", "result": 98, "unit": "%"}, {"measurement": "inhibition at 0.03 µM", "setting": "[2]; read-out: Adrenergic α1B, inhibition of ligand binding (0.03 μM)", "result": 63, "unit": "%"}, {"measurement": "inhibition at 0.3 µM", "setting": "[2]; read-out: Adrenergic α1B, inhibition of ligand binding (0.3 μM)", "result": 89, "unit": "%"}, {"measurement": "inhibition at 1 µM", "setting": "[2]", "result": 99, "unit": "%"}, {"measurement": "inhibition at 0.03 µM", "setting": "[3]; read-out: Adrenergic α2C, inhibition of ligand binding (0.03 μM)", "result": 14, "unit": "%"}, {"measurement": "inhibition at 0.3 µM", "setting": "[3]; read-out: Adrenergic α2C, inhibition of ligand binding (0.3 μM)", "result": 69, "unit": "%"}, {"measurement": "inhibition at 1 µM", "setting": "[3]", "result": 97, "unit": "%"}]}, {"smiles": "Cc1ccc2c(c1)c1c(n2CCc2ccccc2)CC2CCCC1N2C", "note": "(stereo not drawn) [Compound 56]", "values": [{"measurement": "inhibition at 1 µM", "setting": "[1]", "result": 94, "unit": "%"}, {"measurement": "inhibition at 1 µM", "setting": "[2]", "result": 80, "unit": "%"}, {"measurement": "inhibition at 1 µM", "setting": "[3]", "result": 55, "unit": "%"}]}, {"smiles": "CN1C2CCC1c1c(n(CCc3ccc(F)cc3)c3ccc(Cl)cc13)C2", "note": "(stereo not drawn) [Compound 57]", "values": [{"measurement": "inhibition at 1 µM", "setting": "[1]", "result": 90, "unit": "%"}, {"measurement": "inhibition at 1 µM", "setting": "[2]", "result": 87, "unit": "%"}, {"measurement": "inhibition at 1 µM", "setting": "[3]", "result": 83, "unit": "%"}]}, {"smiles": "CN1C2CCC1c1c(n(CCc3ccc(Cl)cc3)c3ccc(Cl)cc13)C2", "note": "(stereo not drawn) [Compound 58]", "values": [{"measurement": "inhibition at 1 µM", "setting": "[1]", "result": 89, "unit": "%"}, {"measurement": "inhibition at 1 µM", "setting": "[2]", "result": 83, "unit": "%"}, {"measurement": "inhibition at 1 µM", "setting": "[3]", "result": 89, "unit": "%"}]}]}
